Values quoted from earlier work, collected in US8053463B2, “PPAR active compounds” (Plexxikon Inc., priority 2007, dated 2011).

Assays:
PPARδ = target: T1, PPARδ (Homo sapiens, UniProt Q03181)
T1 sequence (Q03181 1-441): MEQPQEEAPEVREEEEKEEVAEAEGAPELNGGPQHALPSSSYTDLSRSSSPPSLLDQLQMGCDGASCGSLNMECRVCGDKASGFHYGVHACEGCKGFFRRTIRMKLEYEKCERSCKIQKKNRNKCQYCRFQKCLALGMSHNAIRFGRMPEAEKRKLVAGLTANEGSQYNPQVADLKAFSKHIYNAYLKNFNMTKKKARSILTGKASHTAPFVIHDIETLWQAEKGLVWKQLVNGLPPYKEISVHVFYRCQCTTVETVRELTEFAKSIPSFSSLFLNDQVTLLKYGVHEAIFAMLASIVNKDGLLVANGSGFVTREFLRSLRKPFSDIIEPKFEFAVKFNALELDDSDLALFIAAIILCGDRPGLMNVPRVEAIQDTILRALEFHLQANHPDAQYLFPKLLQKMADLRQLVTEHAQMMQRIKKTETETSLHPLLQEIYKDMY

murine PPARα = target: T2, murine PPARα (Mus musculus, UniProt P23204)
T2 sequence (P23204 1-468): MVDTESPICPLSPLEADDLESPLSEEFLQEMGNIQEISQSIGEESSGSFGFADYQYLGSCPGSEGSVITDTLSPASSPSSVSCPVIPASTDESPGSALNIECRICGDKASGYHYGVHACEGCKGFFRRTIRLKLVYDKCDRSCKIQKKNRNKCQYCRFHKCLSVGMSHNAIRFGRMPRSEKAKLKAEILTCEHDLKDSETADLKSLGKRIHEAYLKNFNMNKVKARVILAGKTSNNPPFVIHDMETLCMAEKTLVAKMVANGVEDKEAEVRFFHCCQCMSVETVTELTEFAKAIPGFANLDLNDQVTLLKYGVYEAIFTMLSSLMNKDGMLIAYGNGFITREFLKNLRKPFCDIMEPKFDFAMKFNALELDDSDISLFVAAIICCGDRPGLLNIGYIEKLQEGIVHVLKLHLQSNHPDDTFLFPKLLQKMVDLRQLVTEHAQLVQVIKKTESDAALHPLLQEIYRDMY

SMILES: CCCc1c(OCCCOc2ccc(OCC(=O)O)cc2)ccc(C(C)=O)c1O [Compound L-165041]
- agonist selectivity for PPARδ over PPARγ (PPARδ): approximately 30 fold
- activity on murine PPARα (murine PPARα): inactive
